Molecular target: P. falciparum apicoplast DNA polymerase (Pf-apPOL) (Plasmodium falciparum, UniProt Q8ILY1)
Experiment: Fluorescence-based high-throughput DNA polymerase assay (molecular beacon), primary screen and dose-response;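 for % inhibition ApPOL 90': test concentration in µM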;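 for % inhibition Apol 40': compound concentration given in µM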;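 for % inhibition apPOL 180': test concentration in µM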
Format: biochemical
Details: for DNA Pol: 90 min, 10 µM
How it was run: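 Single-point screening used 10 µM compound with 20 nM polymerase, 20 nM hairpin substrate and 6 µM dNTPs for 90 min at 25 °C. Confirmatory titrations (2.5–80 µM) followed fluorescence at three times, and IC50 was derived from a fit including a cooperativity term n.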

[1] = "DNA Pol" of the 186 hits list (screen value)

P. falciparum apicoplast DNA polymerase (Pf-apPOL), sequence (Q8ILY1 entry or part of it): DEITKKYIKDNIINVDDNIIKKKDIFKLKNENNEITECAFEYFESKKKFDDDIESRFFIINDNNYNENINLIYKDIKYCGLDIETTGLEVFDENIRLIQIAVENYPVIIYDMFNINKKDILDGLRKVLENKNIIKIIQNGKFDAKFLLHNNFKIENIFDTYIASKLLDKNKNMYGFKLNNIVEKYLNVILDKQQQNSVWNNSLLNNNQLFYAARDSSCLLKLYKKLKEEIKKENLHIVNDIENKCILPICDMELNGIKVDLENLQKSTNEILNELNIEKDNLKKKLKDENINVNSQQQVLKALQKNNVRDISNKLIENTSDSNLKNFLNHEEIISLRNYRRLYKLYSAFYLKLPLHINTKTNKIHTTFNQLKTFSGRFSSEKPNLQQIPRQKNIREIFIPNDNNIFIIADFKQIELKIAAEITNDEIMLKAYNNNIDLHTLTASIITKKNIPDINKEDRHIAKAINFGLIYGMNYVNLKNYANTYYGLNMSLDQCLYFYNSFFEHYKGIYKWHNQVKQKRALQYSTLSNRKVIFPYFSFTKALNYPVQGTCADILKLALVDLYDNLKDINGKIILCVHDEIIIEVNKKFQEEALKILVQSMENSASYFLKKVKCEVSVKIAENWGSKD

For CC(=O)c1cc2c(N)c(/C(N)=N/C#N)sc2nc1C [KU0015866], the “DNA Pol” value ('DNA Pol' of the 186 hits list (primary screen value)) was 33, the “DNA Pol” value (DNA Pol (primary screen value)) was 33 and the “% inhibition Apo pol 10'” value (DRC-1, concentration 2.5) was 6.515%. The “% inhibition Apo pol 10'” value (DRC-1, concentration 5) was 12.7693%, the “% inhibition Apo pol 10'” value (DRC-1, concentration 10) was 31.7983% and the “% inhibition Apo pol 10'” value (DRC-1, concentration 20) was 44.0355%. The “% inhibition Apo pol 10'” value (DRC-1, concentration 40) was 64.9344%, the “% inhibition Apo pol 10'” value (DRC-1, concentration 80) was 81.2768% and the “% inhibition Apol 90'” value (DRC-1, concentration 2.5) was -0.6957%. The “% inhibition Apol 90'” value (DRC-1, concentration 5) was -1.631%, the “% inhibition Apol 90'” value (DRC-1, concentration 10) was 8.506% and the “% inhibition Apol 90'” value (DRC-1, concentration 20) was 14.7865%. The “% inhibition Apol 90'” value (DRC-1, concentration 40) was 35.058%, the “% inhibition Apol 90'” value (DRC-1, concentration 80) was 75.8739% and the “% inhibition apPOL 180'” value (DRC-1, concentration 2.5) was -1.629%. For the same molecule, the “% inhibition apPOL 180'” value (DRC-1, concentration 5) was -5.477%, the “% inhibition apPOL 180'” value (DRC-1, concentration 10) was 0.782% and the “% inhibition apPOL 180'” value (DRC-1, concentration 20) was 3.3611%. For the same molecule, the “% inhibition apPOL 180'” value (DRC-1, concentration 40) was 18.0593%, the “% inhibition apPOL 180'” value (DRC-1, concentration 80) was 70.7811% and the “% inhibition Apo pol 5'” value (DRC-2, concentration 2.5) was 7%. For the same molecule, the “% inhibition Apo pol 5'” value (DRC-2, concentration 5) was 12%, the “% inhibition Apo pol 5'” value (DRC-2, concentration 10) was 28% and the “% inhibition Apo pol 5'” value (DRC-2, concentration 20) was 37%. For the same molecule, the “% inhibition Apo pol 5'” value (DRC-2, concentration 40) was 40%, the “% inhibition Apo pol 5'” value (DRC-2, concentration 80) was 37% and the “% inhibition Apol 40'” value (DRC-2, concentration 2.5) was 6%. The “% inhibition Apol 40'” value (DRC-2, concentration 5) was 4.46%, the “% inhibition Apol 40'” value (DRC-2, concentration 10) was 19% and the “% inhibition Apol 40'” value (DRC-2, concentration 20) was 33%. The “% inhibition Apol 40'” value (DRC-2, concentration 40) was 48%, the “% inhibition Apol 40'” value (DRC-2, concentration 80) was 55% and the “% inhibition ApPOL 90'” value (DRC-2, concentration 2.5) was 4.51%. For the same molecule, the “% inhibition ApPOL 90'” value (DRC-2, concentration 5) was 1.44%, the “% inhibition ApPOL 90'” value (DRC-2, concentration 10) was 14% and the “% inhibition ApPOL 90'” value (DRC-2, concentration 20) was 25%. The “% inhibition ApPOL 90'” value (DRC-2, concentration 40) was 45%, the “% inhibition ApPOL 90'” value (DRC-2, concentration 80) was 56% and the “% inhibition apPOL 180'” value (DRC-2, concentration 2.5) was -4.65%. For the same molecule, the “% inhibition apPOL 180'” value (DRC-2, concentration 5) was -9%, the “% inhibition apPOL 180'” value (DRC-2, concentration 10) was -0.253% and the “% inhibition apPOL 180'” value (DRC-2, concentration 20) was 10%. For the same molecule, the “% inhibition apPOL 180'” value (DRC-2, concentration 40) was 34% and the “% inhibition apPOL 180'” value (DRC-2, concentration 80) was 54%.
For O=C(CSc1nnc(-c2ccco2)[nH]1)c1ccc(Cl)cc1 [KU0029065], the “DNA Pol” value [1] was 40, the “% inhibition Apo pol 10'” value (DRC-1, concentration 2.5) was 25.2453% and the “% inhibition Apo pol 10'” value (DRC-1, concentration 5) was 33.7865%. The “% inhibition Apo pol 10'” value (DRC-1, concentration 10) was 71.7651%, the “% inhibition Apo pol 10'” value (DRC-1, concentration 20) was 81.7468% and the “% inhibition Apo pol 10'” value (DRC-1, concentration 40) was 82.8592%. For the same molecule, the “% inhibition Apo pol 10'” value (DRC-1, concentration 80) was 73.082%, the “% inhibition Apol 90'” value (DRC-1, concentration 2.5) was 14.2802% and the “% inhibition Apol 90'” value (DRC-1, concentration 5) was 16.5602%. For the same molecule, the “% inhibition Apol 90'” value (DRC-1, concentration 10) was 48.3315%, the “% inhibition Apol 90'” value (DRC-1, concentration 20) was 65.2838% and the “% inhibition Apol 90'” value (DRC-1, concentration 40) was 75.799%. For the same molecule, the “% inhibition Apol 90'” value (DRC-1, concentration 80) was 79.1006%, the “% inhibition apPOL 180'” value (DRC-1, concentration 2.5) was 10.7111% and the “% inhibition apPOL 180'” value (DRC-1, concentration 5) was 8.15%. The “% inhibition apPOL 180'” value (DRC-1, concentration 10) was 30.1123%, the “% inhibition apPOL 180'” value (DRC-1, concentration 20) was 47.4786% and the “% inhibition apPOL 180'” value (DRC-1, concentration 40) was 65.3498%. For the same molecule, the “% inhibition apPOL 180'” value (DRC-1, concentration 80) was 74.7958%, the “% inhibition Apo pol 5'” value (DRC-2, concentration 2.5) was -0.174% and the “% inhibition Apo pol 5'” value (DRC-2, concentration 5) was -0.717%. For the same molecule, the “% inhibition Apo pol 5'” value (DRC-2, concentration 10) was 6%, the “% inhibition Apo pol 5'” value (DRC-2, concentration 20) was 26% and the “% inhibition Apo pol 5'” value (DRC-2, concentration 40) was -5.63%. The “% inhibition Apo pol 5'” value (DRC-2, concentration 80) was -27%, the “% inhibition Apol 40'” value (DRC-2, concentration 2.5) was 0.888% and the “% inhibition Apol 40'” value (DRC-2, concentration 5) was 0.406%. The “% inhibition Apol 40'” value (DRC-2, concentration 10) was 7%, the “% inhibition Apol 40'” value (DRC-2, concentration 20) was 17% and the “% inhibition Apol 40'” value (DRC-2, concentration 40) was 0.537%. For the same molecule, the “% inhibition Apol 40'” value (DRC-2, concentration 80) was -50%, the “% inhibition ApPOL 90'” value (DRC-2, concentration 2.5) was 1.21% and the “% inhibition ApPOL 90'” value (DRC-2, concentration 5) was -0.831%. The “% inhibition ApPOL 90'” value (DRC-2, concentration 10) was 6%, the “% inhibition ApPOL 90'” value (DRC-2, concentration 20) was 23% and the “% inhibition ApPOL 90'” value (DRC-2, concentration 40) was -0.138%. For the same molecule, the “% inhibition ApPOL 90'” value (DRC-2, concentration 80) was -49%, the “% inhibition apPOL 180'” value (DRC-2, concentration 2.5) was 0.33% and the “% inhibition apPOL 180'” value (DRC-2, concentration 5) was -8%. For the same molecule, the “% inhibition apPOL 180'” value (DRC-2, concentration 10) was -2.67%, the “% inhibition apPOL 180'” value (DRC-2, concentration 20) was 15% and the “% inhibition apPOL 180'” value (DRC-2, concentration 40) was -5%. The “% inhibition apPOL 180'” value (DRC-2, concentration 80) was -45% and the “DNA Pol” value (primary screen value, DNA Pol) was 40.
COc1ccc(-c2n[nH]cc2Oc2ccc(Cl)cc2)c(O)c1 [KU0029837] was tested, and the “DNA Pol” value [1] was 54, the “% inhibition Apo pol 10'” value (DRC-1, concentration 2.5) was 13.0965% and the “% inhibition Apo pol 10'” value (DRC-1, concentration 5) was 22.8396%. The “% inhibition Apo pol 10'” value (DRC-1, concentration 10) was 52.0762%, the “% inhibition Apo pol 10'” value (DRC-1, concentration 20) was 64.1383% and the “% inhibition Apo pol 10'” value (DRC-1, concentration 40) was 82.54%. The “% inhibition Apo pol 10'” value (DRC-1, concentration 80) was 88.9574%, the “% inhibition Apol 90'” value (DRC-1, concentration 2.5) was 6.836% and the “% inhibition Apol 90'” value (DRC-1, concentration 5) was 14.8627%. The “% inhibition Apol 90'” value (DRC-1, concentration 10) was 39.7229%, the “% inhibition Apol 90'” value (DRC-1, concentration 20) was 52.6198% and the “% inhibition Apol 90'” value (DRC-1, concentration 40) was 73.85%. For the same molecule, the “% inhibition Apol 90'” value (DRC-1, concentration 80) was 85.1708%, the “% inhibition apPOL 180'” value (DRC-1, concentration 2.5) was 2.031% and the “% inhibition apPOL 180'” value (DRC-1, concentration 5) was 3.615%. For the same molecule, the “% inhibition apPOL 180'” value (DRC-1, concentration 10) was 25.5956%, the “% inhibition apPOL 180'” value (DRC-1, concentration 20) was 36.8517% and the “% inhibition apPOL 180'” value (DRC-1, concentration 40) was 62.2191%. The “% inhibition apPOL 180'” value (DRC-1, concentration 80) was 78.7822%, the “% inhibition Apo pol 5'” value (DRC-2, concentration 2.5) was 15% and the “% inhibition Apo pol 5'” value (DRC-2, concentration 5) was 23%. For the same molecule, the “% inhibition Apo pol 5'” value (DRC-2, concentration 10) was 39%, the “% inhibition Apo pol 5'” value (DRC-2, concentration 20) was 43% and the “% inhibition Apo pol 5'” value (DRC-2, concentration 40) was 51%. The “% inhibition Apo pol 5'” value (DRC-2, concentration 80) was 51%, the “% inhibition Apol 40'” value (DRC-2, concentration 2.5) was 15% and the “% inhibition Apol 40'” value (DRC-2, concentration 5) was 27%. The “% inhibition Apol 40'” value (DRC-2, concentration 10) was 46%, the “% inhibition Apol 40'” value (DRC-2, concentration 20) was 55% and the “% inhibition Apol 40'” value (DRC-2, concentration 40) was 69%. The “% inhibition Apol 40'” value (DRC-2, concentration 80) was 72%, the “% inhibition ApPOL 90'” value (DRC-2, concentration 2.5) was 13% and the “% inhibition ApPOL 90'” value (DRC-2, concentration 5) was 24%. For the same molecule, the “% inhibition ApPOL 90'” value (DRC-2, concentration 10) was 44%, the “% inhibition ApPOL 90'” value (DRC-2, concentration 20) was 53% and the “% inhibition ApPOL 90'” value (DRC-2, concentration 40) was 71%. The “% inhibition ApPOL 90'” value (DRC-2, concentration 80) was 74%, the “% inhibition apPOL 180'” value (DRC-2, concentration 2.5) was 2.39% and the “% inhibition apPOL 180'” value (DRC-2, concentration 5) was 13%. For the same molecule, the “% inhibition apPOL 180'” value (DRC-2, concentration 10) was 32%, the “% inhibition apPOL 180'” value (DRC-2, concentration 20) was 43% and the “% inhibition apPOL 180'” value (DRC-2, concentration 40) was 66%. The “% inhibition apPOL 180'” value (DRC-2, concentration 80) was 74% and the “DNA Pol” value (primary screen value, DNA Pol) was 54.
